Measured values as given in ChEMBL document CHEMBL6083204, “Synthesis of a celastrol derivative as a cancer stem cell inhibitor through regulation of the STAT3 pathway for treatment of ovarian cancer” (RSC Med Chem, 2024).
The source made the active and inactive calls. No cut-off for these calls is given here.

Assays:
SK-OV-3 [1] = assay: Inhibition of colony formation in human SK-OV-3 cells assessed as reduction in colony number incubated for 10 days by crystal violet staining based analysis; type: functional, cell-based; details: time 10.0 day
[2] = target: Tyrosine-protein kinase JAK2 (Homo sapiens) (UniProt O60674); assay: Inhibition of JAK2 in human SK-OV-3 cells assessed as downregulation of JAK2 expression at 0.1 to 0.4 uM incubated for 24 hrs by Western blotting analysis; type: cell-based; details: dose 0.1-0.4 µM
Chain of Tyrosine-protein kinase JAK2 (Homo sapiens) (O60674 whole entry): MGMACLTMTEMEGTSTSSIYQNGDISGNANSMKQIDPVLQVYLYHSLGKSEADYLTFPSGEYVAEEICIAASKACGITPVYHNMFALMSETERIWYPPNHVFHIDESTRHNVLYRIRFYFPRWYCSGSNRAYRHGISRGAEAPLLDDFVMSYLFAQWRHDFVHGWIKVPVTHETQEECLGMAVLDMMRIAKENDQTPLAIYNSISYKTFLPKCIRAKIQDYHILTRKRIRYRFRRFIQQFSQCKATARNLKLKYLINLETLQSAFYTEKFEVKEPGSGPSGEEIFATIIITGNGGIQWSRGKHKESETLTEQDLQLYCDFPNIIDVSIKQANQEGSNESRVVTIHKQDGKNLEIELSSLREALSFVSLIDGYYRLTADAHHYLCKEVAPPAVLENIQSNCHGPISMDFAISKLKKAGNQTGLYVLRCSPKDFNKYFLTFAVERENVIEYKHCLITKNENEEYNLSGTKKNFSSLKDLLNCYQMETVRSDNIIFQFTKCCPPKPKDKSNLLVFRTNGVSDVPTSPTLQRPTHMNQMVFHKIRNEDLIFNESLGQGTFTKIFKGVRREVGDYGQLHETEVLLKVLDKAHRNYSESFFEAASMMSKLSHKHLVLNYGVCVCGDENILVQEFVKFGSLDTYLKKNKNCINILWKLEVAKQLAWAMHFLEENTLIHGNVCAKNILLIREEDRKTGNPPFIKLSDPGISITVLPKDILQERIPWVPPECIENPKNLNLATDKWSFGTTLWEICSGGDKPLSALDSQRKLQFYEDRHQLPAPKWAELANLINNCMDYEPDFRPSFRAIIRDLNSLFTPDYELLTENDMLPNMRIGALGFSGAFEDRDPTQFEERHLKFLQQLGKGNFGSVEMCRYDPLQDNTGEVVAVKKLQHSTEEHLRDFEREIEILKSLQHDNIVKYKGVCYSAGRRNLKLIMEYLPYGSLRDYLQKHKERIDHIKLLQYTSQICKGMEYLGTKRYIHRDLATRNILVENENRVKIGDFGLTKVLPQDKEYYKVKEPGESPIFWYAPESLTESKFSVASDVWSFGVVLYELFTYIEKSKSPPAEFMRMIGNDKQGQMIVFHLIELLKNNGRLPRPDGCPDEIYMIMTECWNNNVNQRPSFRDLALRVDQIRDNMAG

[3] = target: Signal transducer and activator of transcription 3 (Homo sapiens) (UniProt P40763); assay: Inhibition of STAT3 in human A2780 cells assessed as downregulation of cytoplasmic STAT3 phosphorylation at Ser727 residue at 0.2 uM incubated for 24 hrs by Hoechst33342 staining based immunofluorescence assay; type: cell-based
Chain of Signal transducer and activator of transcription 3 (Homo sapiens) (P40763 whole entry): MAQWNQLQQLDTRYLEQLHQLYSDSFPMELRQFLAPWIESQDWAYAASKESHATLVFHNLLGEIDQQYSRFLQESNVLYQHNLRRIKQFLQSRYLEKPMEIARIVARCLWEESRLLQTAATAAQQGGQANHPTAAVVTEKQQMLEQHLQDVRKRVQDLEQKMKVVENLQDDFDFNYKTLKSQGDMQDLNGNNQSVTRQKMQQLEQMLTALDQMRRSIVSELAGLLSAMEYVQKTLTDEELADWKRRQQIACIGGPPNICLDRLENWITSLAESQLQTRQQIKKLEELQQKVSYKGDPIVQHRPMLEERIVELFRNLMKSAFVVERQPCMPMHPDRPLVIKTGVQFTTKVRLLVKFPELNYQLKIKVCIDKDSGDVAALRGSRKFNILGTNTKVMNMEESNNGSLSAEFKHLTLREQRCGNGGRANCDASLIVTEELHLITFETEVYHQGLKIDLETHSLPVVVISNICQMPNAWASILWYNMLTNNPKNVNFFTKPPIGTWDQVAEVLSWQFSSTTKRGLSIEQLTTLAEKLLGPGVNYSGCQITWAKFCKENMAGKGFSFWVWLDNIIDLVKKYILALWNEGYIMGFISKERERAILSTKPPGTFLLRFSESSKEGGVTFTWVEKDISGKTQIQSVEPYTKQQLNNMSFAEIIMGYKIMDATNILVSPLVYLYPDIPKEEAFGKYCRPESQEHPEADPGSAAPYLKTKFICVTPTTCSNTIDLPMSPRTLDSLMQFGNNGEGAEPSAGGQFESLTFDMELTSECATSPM

SK-OV-3 [4] = assay: Induction of cell cycle arrest in human SK-OV-3 cells assessed as accumulation of cells at G2/M phase at 0.8 uM incubated for 24 hrs by BrdU staining based flow cytometry (reference value: 6.3 %); type: functional
A2780 [5] = assay: Induction of cell cycle arrest in human A2780 cells assessed as accumulation of cells at G0/G1 phase at 0.2 uM incubated for 24 hrs by BrdU staining based flow cytometry (reference value: 42.4 %); type: functional
SK-OV-3 [6] = assay: Induction of apoptosis in human SK-OV-3 cells assessed as necrotic cells at 0.4 uM incubated for 24 hrs by Annexin V-FITC/7-AAD staining based flow cytometry (reference value: 0.6 %); type: functional
A2780 [7] = assay: Induction of apoptosis in human A2780 cells assessed as late apoptotic cells at 0.4 uM incubated for 24 hrs by Annexin V-FITC/7-AAD staining based flow cytometry (reference value: 2.1 %); type: functional
A2780 [8] = assay: Induction of apoptosis in human A2780 cells assessed as necrotic cells at 0.8 uM incubated for 24 hrs by Annexin V-FITC/7-AAD staining based flow cytometry (reference value: 1 %); type: functional
Mitochondrial membrane = assay: Induction of mitochondrial membrane potential loss in human A2780 cells at 0.1 uM incubated for 24 hrs by JC-1 staining based flow cytometry (reference value: 81 %)
A2780 [9] = assay: Induction of apoptosis in human A2780 cells assessed as increase in caspase-3 activity at 0.4 uM incubated for 24 hrs by flow cytometry (reference value: 1.5 %); type: functional
[10] = Toxicity in BALB/c mouse xenografted with human SK-OV-3 cells assessed as behavioral change at 2 to 5 mg/kg,ip administrated for 21 consecutive days; type: organism-based; details: in vivo, dose 2-5 mg/kg

In the case of CC1=C(O)C(=O)C=C2C1=CC=C1[C@@]2(C)CC[C@@]2(C)[C@@H]3C[C@](C)(C(=O)N4CCNCC4)CC[C@]3(C)CC[C@]12C, the inhibition (SK-OV-3 [1]) is reported as “Dose-dependent-effect”, the inhibition [2] is reported as “Active” and the inhibition [3] is reported as “Active; Showed Mild Inhibition Activity”. The Activity (SK-OV-3 [4]) was 18.2%, the Activity (A2780 [5]) was 53.7% and the Activity (SK-OV-3 [6]) was 0.9%. It also gave an Activity (A2780 [7]) of 15%, an Activity (A2780 [8]) of 7.1% and an Activity (Mitochondrial membrane) of 56.4%. The Activity (A2780 [9]) was 24.1% and the Activity [10] was “Non-toxic”.
